Measurements as given in patent US6365166B2, “Gel formulations for topical drug delivery” (priority 1996, dated 2002).
Read-outs that look alike come from different tables or passages of the source.

Columns and labels:
[1] = tested on: interferon and tumor necrosis factor; conditions: rats, oral administration; cited from earlier work
[2] = tested on: interferon and tumor necrosis factor; conditions: mice, oral administration; cited from earlier work
[3] = tested on: herpes simplex virus; conditions: subcutaneously, dermally or intravaginally 24 hours before infection; cited from earlier work
[4] = Solubility of the drug in gel formulations of the invention; format: physicochemical
[5] = tested on: human peripheral blood mononuclear cells; conditions: cultures of human peripheral blood mononuclear cells; cited from earlier work

Q: Which “induction of interferon and tumor necrosis factor” value [1] does the source give for CCOCc1nc2c(N)nc3ccccc3c2n1CC(C)(C)O [4-amino-2-ethoxymethyl-α,α-dimethyl-1H-imidazo[4,5-c]quinoline-1-ethanol] here?
A: induce interferon and tumor necrosis factor

Q: And the “induction of interferon and tumor necrosis factor” value [2]?
A: induce interferon and tumor necrosis factor

Q: And the antiviral activity [3]?
A: antiviral activity

Q: And the “solubility in formulations of the invention” value [4]?
A: sufficiently soluble

Q: And the “solubility in formulations of the invention” value ([4]; listed as 4-Amino-2-ethoxymethyl-α,α-dimethyl-1H-imidazo[4,5-c]quinoline-1-ethanol)?
A: substantial solubility

Q: What about the cytokine induction [5] of the same compound?
A: induce interferon-α, tumor necrosis factor, interleukin-1α, interleukin-1β, interleukin-6 and interleukin-8
